For assay [1], the target named is Mitogen-activated protein kinase; ERK1/ERK2 (Homo sapiens) (UniProt P27361+P28482). Put plainly: Inhibition of ERK phosphorylation in cells (unknown origin) incubated for 6 hrs by Western blot based cell based method. (In general: A western blot detects proteins with antibodies after separation by electrophoresis.)
In assay [2] the test system is FaDu. Nature of the assay: Cytotoxic activity against human FADU cancer stem cells incubated for 72 hrs by Cell-titer-Glo luminescence assay. The format is functional, cell-based.
Assay [3] addresses T1, Ribosomal protein S6 kinase (Homo sapiens) (UniProt P51812+Q9UBS0+O75676+Q15349+O75582+P23443+Q9UK32+Q15418). Put plainly: Inhibition of RPS6 kinase phosphorylation in cells (unknown origin) incubated for 6 hrs by Western blot based cell based method.
Assay [4] has as its system A549. Put plainly: Cytotoxic activity against human A549 bulk cells incubated for 72 hrs by Cell-titer-Glo luminescence assay. The format is functional, cell-based. The settings on record: A549, 72 h.
In assay [5] the test system is FaDu. Put plainly: Cytotoxic activity against human FADU bulk cells incubated for 72 hrs by Cell-titer-Glo luminescence assay. It counts as functional, cell-based.
For assay [6], the system named is ACHN. Nature of the assay: Cytotoxic activity against human ACHN bulk cells incubated for 72 hrs by Cell-titer-Glo luminescence assay. It counts as functional, cell-based.
Assay [7] has as its system ACHN. Put plainly: Cytotoxic activity against human ACHN cancer stem cells incubated for 72 hrs by Cell-titer-Glo luminescence assay. It counts as functional, cell-based.
Assay [8] deals with T1, Ribosomal protein S6 kinase (Homo sapiens). Put plainly: Inhibition of RPS6 kinase in human HeLa cells assessed as p-RPS6 Ser240/244 phosphorylation level at 5 uM incubated for 6 hrs by SDS-PAGE based chemiluminescence assay. The format is cell-based. Details: scale not given: the % may be the effect or the level left.
Assay [9] addresses Serine/threonine-protein kinase RIO2 (Homo sapiens) (UniProt Q9BVS4). Nature of the assay: Inhibition of N-terminal GST-fused full length human recombinant RIOK2 expressed in baculovirus Sf21 cells assessed as reduction in kinase auto-phosphorylation at 1 uM in presence of ATP incubated for 1 hr by ELISA method. Background: An ELISA detects its analyte on a solid surface through an enzyme-linked reagent.

For assay [10], the target named is T1, Ribosomal protein S6 kinase (Homo sapiens). Put plainly: Inhibition of RPS6 kinase in human HeLa cells assessed as p-RPS6 Ser235/236 phosphorylation level at 5 uM incubated for 6 hrs by SDS-PAGE based chemiluminescence assay. It counts as cell-based. Details: scale not given: the % may be the effect or the level left.
Assay [11] deals with A549. Put plainly: Cytotoxic activity against human A549 cancer stem cells incubated for 72 hrs by Cell-titer-Glo luminescence assay. The format is functional, cell-based. Conditions: A549, 72 h.
The target in assay [12] is Serine/threonine-protein kinase RIO2 (Homo sapiens) (UniProt Q9BVS4). Nature of the assay: Inhibition of N-terminal GST-fused full length human recombinant RIOK2 expressed in baculovirus Sf21 cells assessed as reduction in kinase auto-phosphorylation at 10 uM in presence of ATP incubated for 1 hr by ELISA method.
Assay [13] deals with AMP-activated protein kinase, AMPK (Homo sapiens) (UniProt P54646+O43741+P54619+Q9UGJ0+Q9Y478+Q13131+Q9UGI9). Nature of the assay: Inhibition of AMPK in human HeLa cells assessed as kinase phosphorylation level at 5 uM incubated for 6 hrs by SDS-PAGE based chemiluminescence assay. It counts as cell-based. Details: scale not given: the % may be the effect or the level left.

The source made the active and inactive calls. The calls are words filed in the database; no cut-off is given here.

Sequence of Mitogen-activated protein kinase; ERK1/ERK2 (Homo sapiens) (P27361 whole entry, looked up): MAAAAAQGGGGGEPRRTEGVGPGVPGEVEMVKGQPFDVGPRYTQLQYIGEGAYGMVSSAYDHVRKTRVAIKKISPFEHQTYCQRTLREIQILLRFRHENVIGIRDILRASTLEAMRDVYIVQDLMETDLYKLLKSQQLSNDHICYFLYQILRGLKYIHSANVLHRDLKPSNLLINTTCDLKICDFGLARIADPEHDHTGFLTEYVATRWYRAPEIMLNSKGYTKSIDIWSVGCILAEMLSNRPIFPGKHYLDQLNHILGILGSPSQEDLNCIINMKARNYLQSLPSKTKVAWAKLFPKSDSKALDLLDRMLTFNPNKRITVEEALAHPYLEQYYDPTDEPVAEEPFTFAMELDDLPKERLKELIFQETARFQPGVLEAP
Sequence of Mitogen-activated protein kinase; ERK1/ERK2 (Homo sapiens) (P28482 whole entry, looked up): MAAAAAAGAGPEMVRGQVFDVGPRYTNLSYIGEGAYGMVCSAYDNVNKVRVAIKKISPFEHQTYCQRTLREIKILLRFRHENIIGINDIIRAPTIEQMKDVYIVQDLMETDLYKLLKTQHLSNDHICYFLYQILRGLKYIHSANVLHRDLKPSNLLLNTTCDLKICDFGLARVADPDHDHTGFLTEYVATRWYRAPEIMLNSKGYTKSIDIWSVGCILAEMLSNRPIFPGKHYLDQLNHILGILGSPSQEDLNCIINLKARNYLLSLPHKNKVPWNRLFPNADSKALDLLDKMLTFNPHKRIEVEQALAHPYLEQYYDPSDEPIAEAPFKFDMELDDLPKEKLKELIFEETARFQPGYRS
Sequence of Serine/threonine-protein kinase RIO2 (Homo sapiens) (Q9BVS4 whole entry, looked up, the tested form may be a part): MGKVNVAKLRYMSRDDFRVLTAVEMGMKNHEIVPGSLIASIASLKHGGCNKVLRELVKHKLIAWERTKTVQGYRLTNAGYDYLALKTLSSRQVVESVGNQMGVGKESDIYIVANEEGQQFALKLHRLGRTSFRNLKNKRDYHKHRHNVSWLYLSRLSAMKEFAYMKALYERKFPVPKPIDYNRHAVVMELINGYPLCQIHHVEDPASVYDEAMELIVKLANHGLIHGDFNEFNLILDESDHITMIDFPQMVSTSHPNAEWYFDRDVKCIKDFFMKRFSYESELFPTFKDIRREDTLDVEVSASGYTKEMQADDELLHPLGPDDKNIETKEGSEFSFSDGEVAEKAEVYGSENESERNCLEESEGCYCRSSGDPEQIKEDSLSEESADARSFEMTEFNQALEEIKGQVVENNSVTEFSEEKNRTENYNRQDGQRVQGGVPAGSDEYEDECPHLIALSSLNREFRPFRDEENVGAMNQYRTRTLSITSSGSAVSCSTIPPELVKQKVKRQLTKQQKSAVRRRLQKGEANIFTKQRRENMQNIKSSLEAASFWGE

In the case of `CCOC(=O)CCc1ccc(-c2nc(-c3ccc4c(c3)/C(=C/c3[nH]c(C)c(C(=O)NCCN(CC)CC)c3C)C(=O)N4)cs2)cc1`, in assay [1], the inhibition (as a rule, the percentage by which the read-out fell short of the control) was “Active”. Moreover, the concentration for half-maximal inhibition (IC50) – broadly, the point on the concentration scale where inhibition reaches its midpoint – in [2] came to 2520 nM.

Turning to `CCNC(=O)c1c(C)[nH]c(/C=C2\C(=O)Nc3ccc(-c4csc(-c5ccccc5)n4)cc32)c1C`, the inhibition result in [3] and in [1] was “Active” throughout.

Turning to `Cc1[nH]c(/C=C2\C(=O)Nc3ccc(-c4csc(-c5ccccc5)n4)cc32)c(C)c1C(=O)NCCO`, in assay [3], the inhibition entry was “Active”.

`Cc1cc(C)c(/C=C2\C(=O)Nc3ccc(-c4ccc(C=O)cc4)cc32)[nH]1`: the IC50 amounted to 29200 nM in [4] and 26800 nM in assay [5]. The inhibition result in [1] is “Active”.

On to `Cc1[nH]c(/C=C2\C(=O)Nc3ccc(-c4cnn(-c5ccccn5)c4)cc32)c(C)c1C(=O)NCCN1CCCC1`, for which the IC50 worked out at 1640 nM in assay [6]; 2530 nM in [4]; 220 nM in [7]; 11700 nM in assay [11]; 2530 nM in assay [5]; 1650 nM in assay [2]. Moreover, the Activity in assay [8] was 92%; in assay [10] it was 82%; in assay [13], 52%. Also, the figures for the inhibition in [9] and in assay [12] were 53% and 91%, respectively.

The values are drawn from ChEMBL document CHEMBL3727348, “3-(aryl or heteroaryl) methyleneindolin-2-one derivatives as inhibitors of cancer stem cell pathway kinases for the treatment of cancer” (2014).
